{
  "source": "patent US20260272908A1",
  "about": "(VANDERBILT UNIVERSITY, priority 2023, published 2026)",
  "key": {"phospho-ERK (p-ERK)": {"test_system": "phospho-ERK (p-ERK)", "assay": "Western blot for phospho-ERK in Meta3 and Meta4 organoids", "format": "cell-based, mouse", "conditions": "Meta4; 3 days", "method": "(§1) FIG. 3C-3D show the Western blot analysis for p-STAT3 and p-ERK in Meta3 and Meta4 organoids (FIG. 3C) and ratios of p-STAT3/total STAT3 and p-ERK/total ERK (FIG. 3D). […] FIG. 3F-3G show phase-contrast images of Meta4 organoids treated with DMSO, Pyr (100 nM), STAT3-IN-1 (1 μM), Stattic (2 μM), and Cryptotanshinone (CPT) (5 μM) for 3 days (FIG. 3F), and quantitation of organoid diameters before and after treatment (FIG. 3G). FIG. 3H-3I show phase-contrast images of Meta4 organoids treated with DMSO, trametinib (Tra), STAT3-IN-1, combination of Tra and STAT3-IN-1, and Pyr, for 3 days (FIG. 3H), and quantitation of organoid diameters before and after treatment (FIG. 3I). FIG. 3J-3K show western blot for p-STAT3 and p-ERK after treatment of Tra, Pyr, and SSTC3 (FIG. 3J) and ratios of p-STAT3/t-STAT3 and p-ERK/t-ERK (FIG. 3K). […] Relative quantification of each gene expression level was normalized to GAPDH gene expression. Shading scale represents the mRNA expression values. FIG. 3M show representative mRNA of Pim-1 and Cyclin-B1 after treatment. Mean±standard deviation. […] Scale bar=500 μM.\n(§2) Total proteins were extracted from organoids using radioimmunoprecipitation assay buffer (10 mmol/L Tris-HC, pH 7.2, 150 mmol/L NaCl, 5 mmol/L EDTA, 0.1% sodium dodecyl sulfate, 1.0% Triton X-100, 1% deoxycholate) with protease inhibitors. The protein concentration was measured The Bio-Rad Protein Assay (Bio-Rad Laboratories, Hercules, CA). 5 to 10 μg of total protein was loaded onto 12.5% or 10% sodium dodecyl sulfate/polyacrylamide gel electrophoresis (PAGE) and transferred onto polyvinylidene difluoride membranes (Millipore, Billerica, MA). […] After washes with TBS-T, chemiluminescence was detected with an Amersham Imager 680 instrument (GE Healthcare) after 1 mL of the SuperSignal West Femto Maximum Sensitivity Substrate (ThermoFisher) was applied to the membranes."}, "Meta4 organoids": {"test_system": "Meta4 organoids", "assay": "Meta4 dysplastic organoid growth and cell death (organoid diameter, phase-contrast, H&E, live/dead staining)", "format": "cell-based, mouse", "conditions": "pyrvinium 100 nM, SSTC3 0.2-1 μM, STAT3-IN-1 1 μM, Sttatic 2 μM, 3 days; for cell death: trametinib 1 μM", "method": "(§3) All experiments were repeated at least three times.\n(§4) All experiments were performed at least in triplicate."}, "phospho-STAT3 (p-STAT3)": {"test_system": "phospho-STAT3 (p-STAT3)", "assay": "Western blot for phospho-STAT3 in Meta3 and Meta4 organoids", "format": "cell-based, mouse", "conditions": "Meta4; 3 days", "method": "as §1, §2"}, "Meta3 organoids": {"test_system": "Meta3 organoids", "assay": "Meta3 metaplastic organoid growth and survival (organoid diameter, phase-contrast)", "format": "cell-based, mouse", "conditions": "STAT3-IN-1 1 μM, Sttatic 2 μM, CPT 5 μM, 3 days", "method": "as §3, §4"}, "[1]": {"test_system": "human pre-cancerous organoid (hPCO) lines", "assay": "Human precancerous organoid (hPCO) growth and organoid death", "conditions": "STAT3 inhibitors; for response (growth and survival): pyrvinium-resistant hPCO-31", "procedure": "To establish human pre-cancer organoids (hPCO), fresh tissues were obtained from the gastric cancer patients who underwent curative gastrectomy at SNUH (IRB No. H-1806-166-954).\nMeta3, Meta4, and hPCO organoids were cultured in Matrigel (ECM, Sigma) with Mouse or Human IntestiCult medium (StemCell Technology) supplemented with 1% of penicillin/streptomycin (Gibco) in 48-well plates and medium was replaced every 3 days. The organoids were split every 5-7 days before they formed budding structures.\nMouse or human organoids were split and cultured in the Mouse or Human IntestiCult media for 1-2 days until they formed three-dimensional (3D) spherical structures, then the media was switched to media containing either DMSO vehicle or a certain concentration of each drug and cultured for 3 days. The EVOS M7000 inverted microscope were used to obtain phase contrast images of organoids. All experiments were repeated at least three times.\nThe number and diameters of mouse and human organoids treated with drugs were manually counted and measured at day 0 and 3 or 6 after treatment from four entire well images of each condition at 4× magnification. For counting live or dead cells, organoids were stained with Calcein AM for live cells and EthD-1 for dead cells 3 days after treatment and the number of EthD-1 positive organoids were manually counted from images taken from three wells of each condition at 4× magnification. All experiments were performed at least in triplicate. The mean values from each condition were compared by Student's paired or unpaired t-test using Graphpad Prism. *P<0.05, **P<0.01, ***P<0.001, ****P<0.0001."}, "[2]": {"conditions": "pyrvinium-sensitive hPCO-2 line"}},
  "data": [
    {"smiles": "CN(c1ccc(C(F)(F)F)cc1)S(=O)(=O)c1ccc(C(=O)Nc2nc(-c3ccccn3)cs2)cc1", "note": "[SSTC3]", "values": [
      {"measurement": "p-ERK levels", "setting": "phospho-ERK (p-ERK)", "value": "did not reduce"},
      {"measurement": "organoid size / growth", "setting": "Meta4 organoids", "value": "did not cause any growth suppression or cell death"},
      {"measurement": "cell death", "setting": "Meta4 organoids", "value": "did not cause any growth suppression or cell death"},
      {"measurement": "phosphorylation of STAT3^Y705", "setting": "phospho-STAT3 (p-STAT3)", "value": "did not reduce"}
    ]},
    {"smiles": "COc1cc(/C=C/c2ccc(NC(=O)/C=C/c3cc(OC)c(OC)c(OC)c3)cc2)cc(OC)c1", "note": "[STAT3-IN-1]", "values": [
      {"measurement": "organoid size / growth", "setting": "Meta4 organoids", "value": "induced growth arrest"},
      {"measurement": "cell death", "setting": "Meta4 organoids", "value": "did not lead to cell death"},
      {"measurement": "survival and growth of organoids", "setting": "Meta3 organoids", "value": "no influence on the survival and growth"},
      {"measurement": "response (growth and survival)", "setting": "[1]", "value": "did not respond"},
      {"measurement": "organoid survival", "setting": "[1]; [2]", "value": "survived until 6 days after the treatment"}
    ]},
    {"smiles": "O=[N+]([O-])c1ccc2c(c1)S(=O)(=O)C=C2", "note": "[Sttatic]", "values": [
      {"measurement": "organoid size / growth", "setting": "Meta4 organoids", "value": "induced growth arrest"},
      {"measurement": "cell death", "setting": "Meta4 organoids", "value": "did not lead to cell death"},
      {"measurement": "survival and growth of organoids", "setting": "Meta3 organoids", "value": "no influence on the survival and growth"},
      {"measurement": "response (growth and survival)", "setting": "[1]", "value": "did not respond"},
      {"measurement": "organoid survival", "setting": "[1]; [2]", "value": "survived until 6 days after the treatment"},
      {"measurement": "organoid growth", "setting": "[1]; pyrvinium-sensitive hPCO-2 line, 6 days", "value": "arrested organoid growth"}
    ]}
  ]
}
